According to US11964988B2, “Fused heterocyclic compounds as RET kinase inhibitors” (ARRAY BIOPHARMA INC., priority 2018, dated 2024):
Positions count from the first letter of the chain named.

Legend:
[1] = biological target: T1, HEK-293 cells expressing a G810S mutant RET Kif5b-RET fusion protein (Homo sapiens, UniProt P07949, G810S); test: RET G810S Mutant Cell Assay (phospho-RET Tyr1062); type: cell-based; conditions: HEK-293 Kif5b-RET G810S, 1 hour incubation, phospho-RET normalized to GAPDH
T1 construct: KIF5B (N-terminal portion incl. coiled-coil); expressed in transfected cells; host or cells: HEK-293
T1 sequence (P07949 713-1063 G810S limits assumed): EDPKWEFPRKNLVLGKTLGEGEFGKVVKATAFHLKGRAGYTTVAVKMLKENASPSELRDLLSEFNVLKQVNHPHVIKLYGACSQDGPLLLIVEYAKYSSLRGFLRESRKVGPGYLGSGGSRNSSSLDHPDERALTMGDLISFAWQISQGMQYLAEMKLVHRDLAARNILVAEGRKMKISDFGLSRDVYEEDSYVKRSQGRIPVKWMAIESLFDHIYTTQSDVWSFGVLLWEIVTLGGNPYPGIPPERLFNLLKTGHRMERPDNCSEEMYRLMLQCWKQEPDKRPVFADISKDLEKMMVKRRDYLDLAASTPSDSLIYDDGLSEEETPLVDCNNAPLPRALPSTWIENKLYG
Procedure: (§1) The cellular potency of compounds inhibiting RET kinase were determined in HEK-293 cells expressing a G810R or G810S mutant RET Kif5b-RET fusion protein. Briefly, HEK-293 cells expressing a G810R or G810S mutant RET Kif5b-RET fusion protein were plated at 50K cells/well in 96 well poly-D-Lysine coated plates the day prior to the assay. The cells were incubated for 1 hour with test compound in DMEM (Dulbecco's Modified Eagle Medium) at a final DMSO concentration of 0.5%. […] After 1 hour the media was removed, the cells were fixed with 3.8% formaldehyde for 20 min, washed with PBS, and permeabilized for 10 min with 100% methanol. The plates were then washed with PBS-0.05% Tween20, and blocked with LI-COR Blocking solution (LI-COR Catalog No. 927-40000) for 1 hour. Plates were washed with PBS-0.05% Tween20, then incubated with anti-phospho-RET (Tyr1062) (Santa Cruz Catalog No. sc-20252-R) antibody and anti-GAPDH (Millipore Catalog No. MAB374) antibody for 2 hours. The plates were washed with PBS-0.05% Tween20, and incubated with anti-rabbit 680 (Molecular Probes Catalog No. A21109) and anti-mouse 800 (LI-COR Catalog No. 926-32210) secondary antibodies for 1 hour. All antibodies were diluted in LI-COR Block containing 0.05% Tween. The plates were washed with PBS-0.05% Tween20,100 μL PBS was added to each well, and the plates were read on a LI-COR Aerius fluorescent plate reader. The phospho-RET signal was normalized to the GAPDH signal. […] The POC values are fit to a 4 parameter logistic curve. The IC50 value is the point where the curve crosses 50 POC.

G810R mutant RET kinase = G810R mutant RET kinase (Homo sapiens, UniProt P07949, G810R); test: biochemical;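 also: HTRF KinEASE-TK enzymatic assay with 1 nM recombinant RET G810R, 1 h at 22 °C, dual-wavelength ratiometric readout, 100% control without compound, 0% from pre-quenched reactions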
G810R mutant RET kinase, sequence (P07949 29-1114 G810R): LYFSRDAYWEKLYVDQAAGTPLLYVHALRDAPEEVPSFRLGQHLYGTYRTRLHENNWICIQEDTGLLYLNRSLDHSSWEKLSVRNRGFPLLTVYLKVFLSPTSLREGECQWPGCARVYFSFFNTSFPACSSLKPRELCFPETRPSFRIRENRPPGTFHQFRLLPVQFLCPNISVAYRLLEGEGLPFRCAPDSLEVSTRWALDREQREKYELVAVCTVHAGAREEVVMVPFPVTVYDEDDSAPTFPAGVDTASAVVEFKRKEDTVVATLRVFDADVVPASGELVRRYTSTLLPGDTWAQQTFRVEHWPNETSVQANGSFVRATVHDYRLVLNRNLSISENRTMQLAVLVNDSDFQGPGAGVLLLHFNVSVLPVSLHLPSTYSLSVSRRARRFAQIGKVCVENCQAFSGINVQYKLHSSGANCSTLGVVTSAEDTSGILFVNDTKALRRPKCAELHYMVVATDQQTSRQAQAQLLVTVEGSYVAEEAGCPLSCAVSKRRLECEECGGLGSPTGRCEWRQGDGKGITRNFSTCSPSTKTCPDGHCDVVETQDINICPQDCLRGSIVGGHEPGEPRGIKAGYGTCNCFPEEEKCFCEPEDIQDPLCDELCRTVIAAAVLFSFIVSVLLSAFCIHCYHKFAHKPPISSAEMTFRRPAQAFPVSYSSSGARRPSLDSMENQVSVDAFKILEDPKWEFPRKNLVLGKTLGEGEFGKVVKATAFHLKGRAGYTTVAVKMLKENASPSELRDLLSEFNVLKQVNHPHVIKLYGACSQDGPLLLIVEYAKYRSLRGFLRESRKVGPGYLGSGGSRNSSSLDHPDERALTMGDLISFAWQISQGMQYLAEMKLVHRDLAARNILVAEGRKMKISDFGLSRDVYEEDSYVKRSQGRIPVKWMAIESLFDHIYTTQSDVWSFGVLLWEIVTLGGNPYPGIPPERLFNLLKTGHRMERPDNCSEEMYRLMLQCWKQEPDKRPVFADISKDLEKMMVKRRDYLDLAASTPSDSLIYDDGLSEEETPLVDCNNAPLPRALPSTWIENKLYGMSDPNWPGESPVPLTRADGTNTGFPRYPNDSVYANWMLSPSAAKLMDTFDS

G810S mutant RET kinase = G810S mutant RET kinase (Homo sapiens, UniProt P07949, G810S); test: biochemical;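 also: HTRF KinEASE-TK kinase assay with recombinant enzyme, 1 h at 22 °C, dual-wavelength ratiometric read-out, percent of control (DMSO-only = 100, pre-quenched reaction = 0)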
G810S mutant RET kinase, sequence (P07949 29-1114 G810S): as the sequence (P07949 29-1114 G810R) above, with R782S counted along it
Procedure: The potency of compounds inhibiting several different RET kinase forms (Wild Type, V804M, G810R, & G810S) were determined using CisBio's HTRF® KinEASE™-TK assay technology. […] After a 1 hour incubation at 22° C., the extent of reaction was determined using a PerkinElmer EnVision multimode plate reader via HTRF dual wavelength detection, and the percent of control (POC) was calculated using a ratiometric emission factor. One hundred POC was determined using DMSO only samples (no compound present), and 0 POC was determined using pre-quenched control reactions.
The potency of a compound inhibiting G810R or G810S mutant RET kinase was determined using CisBio's HTRF® KinEASE™-TK assay technology. The assays contained G810R or G810S mutant RET produced at Array Biopharma, Inc. (1 nM enzyme). […] After a 1-h incubation at 22° C., the extent of reaction was determined using a PerkinElmer EnVision multimode plate reader via HTRF dual wavelength detection, and the percent of control (POC) was calculated using a ratiometric emission factor. One hundred POC was determined using no test compounds, and 0 POC was determined using pre-quenched control reactions.

[2] = biological target: T2, HEK-293 cells expressing a Kif5b-RET fusion protein (Homo sapiens, UniProt P07949); test: RET Cell Assay (phospho-RET Tyr1062); type: cell-based; conditions: HEK-293 Kif5b-RET, 1 hour incubation, phospho-RET normalized to GAPDH; read-out: KIF5B-RET pTYR1062 Cell IC50
T2 construct: KIF5B (N-terminal portion incl. coiled-coil); expressed in transfected cells; host or cells: HEK-293; the other entry of the earlier key: KIF5B (P33176, Kinesin-1 heavy chain)
T2 sequence (P07949 713-1063 limits assumed): T1 sequence (P07949 713-1063 G810S limits assumed) with S98G
Procedure: as §1, with “a” for “a G810R or G810S mutant RET”, “PBS is” for “PBS was”, “values were” for “values are”

[3] = biological target: T3, HEK-293 cells expressing a G810R mutant RET Kif5b-RET fusion protein (Homo sapiens, UniProt P07949, G810R); test: RET G810R Mutant Cell Assay (phospho-RET Tyr1062); type: cell-based; conditions: HEK-293 Kif5b-RET G810R, 1 hour incubation, phospho-RET normalized to GAPDH
T3 construct: KIF5B (N-terminal portion incl. coiled-coil); expressed in transfected cells; host or cells: HEK-293; the other entry of the earlier key: KIF5B (P33176, Kinesin-1 heavy chain)
T3 sequence (P07949 713-1063 G810R limits assumed): T1 sequence (P07949 713-1063 G810S limits assumed) with S98R
Procedure: as §1

RET kinase Wild Type = RET kinase Wild Type (Homo sapiens, UniProt P07949); test: biochemical;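 also: HTRF kinase activity assay on RET enzyme, 1 h reaction at 22 °C, dual-wavelength readout as percent of control, DMSO-only wells as 100%, pre-quenched reactions as 0%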
RET kinase Wild Type, sequence (P07949 29-1114): as the sequence (P07949 29-1114 G810R) above, with R782G counted along it

RET kinase V804M = RET kinase V804M (Homo sapiens, UniProt P07949, V804M); test: RET Enzyme Assay (CisBio HTRF KinEASE-TK), V804M; type: biochemical; conditions: read-out: RET V804M Enz FRET IC50
RET kinase V804M, sequence (P07949 29-1114 V804M): as the sequence (P07949 29-1114 G810R) above, with V776M, R782G counted along it

Structure (SMILES): CC(=O)Nc1ccc2cc3n(c2c1)CCCc1c-3c2c(N)ncnc2n1C(C)C [Example 139, N-(1-amino-5-isopropyl-5,6,7,8-tetrahydropyrimido[5″,4″:4′,5′]pyrrolo[3′,2′:3,4]azepino[1,2-a]indol-11-yl)acetamide]
- IC50 [1]: 36 nM
- IC50 (G810R mutant RET kinase): 1030 nM
- IC50 (G810S mutant RET kinase): 474 nM
- IC50 [2]: 16 nM
- IC50 [3]: 49 nM
- IC50 (RET kinase Wild Type): 75 nM

Structure (SMILES): COC(=O)c1ccc2c(Cl)c3n(c2c1)C(=O)NCc1c-3c2c(N)ncnc2n1C(C)C [Example 75, Methyl 1-amino-14-chloro-5-isopropyl-8-oxo-5,6,7,8-tetrahydropyrimido[5″,4″:4′,5′]pyrrolo[2′,3′:5,6][1,3]diazepino[1,7-a]indole-11-carboxylate]
- IC50 [1]: 191 nM
- IC50 (G810R mutant RET kinase): 421 nM
- IC50 (G810S mutant RET kinase): 51 nM
- IC50 [3]: 170 nM
- IC50 (RET kinase Wild Type): 82 nM
- IC50 (RET kinase V804M): 2030 nM

Structure (SMILES): CC(C)n1c2c(c3c(N)ncnc31)-c1cc3cc(Cl)ccc3n1C(=O)NC2 [Example 77, 1-amino-12-chloro-5-isopropyl-6,7-dihydropyrimido[5″,4″:4′,5′]pyrrolo[2′,3′: 5,6][1,3]diazepino[1,7-a]indol-8(5H)-one]
- IC50 [1]: 32 nM
- IC50 (G810R mutant RET kinase): 135 nM
- IC50 (G810S mutant RET kinase): 73 nM
- IC50 [2]: 13 nM
- IC50 [3]: 89 nM
- IC50 (RET kinase Wild Type): 27 nM

Structure (SMILES): CC(C)n1c2c(c3c(N)ncnc31)-c1cc3ccc(C(=O)NC4CC4)cc3n1C(=O)NC2 [Example 72, 1-amino-N-cyclopropyl-5-isopropyl-8-oxo-5,6,7,8-tetrahydropyrimido[5″,4″:4′,5′]pyrrolo[2′,3′:5,6][1,3]diazepino[1,7-a]indole-11-carboxamide]
- IC50 [1]: 6350 nM
- IC50 (G810R mutant RET kinase): 3090 nM
- IC50 (G810S mutant RET kinase): 2630 nM
- IC50 [2]: 3960 nM
- IC50 [3]: 16200 nM
- IC50 (RET kinase Wild Type): 512 nM

Structure (SMILES): Nc1ncnc2c1c1c(n2-c2ccccc2)CNC(=O)c2c-1noc2C1CC1 [Example 110, 11-amino-3-cyclopropyl-7-phenyl-6,7-dihydroisoxazolo[4,3-c]pyrimido[5′,4′:4,5]pyrrolo[3,2-e]azepin-4(5H)-one 2,2,2-trifluoroacetate]
- IC50 [1]: 201 nM
- IC50 (G810R mutant RET kinase): 214 nM
- IC50 (G810S mutant RET kinase): 284 nM
- IC50 [3]: 537 nM
- IC50 (RET kinase Wild Type): 411 nM
- IC50 (RET kinase V804M): 1740 nM

Structure (SMILES): COC(=O)c1ccc2cc3n(c2c1)C(=O)NCc1c-3c2c(N)ncnc2n1C(C)C [Example 70, Methyl 1-amino-5-isopropyl-8-oxo-5,6,7,8-tetrahydropyrimido[5″,4″:4′,5′]pyrrolo[2′,3′:5,6][1,3]diazepino[1,7-a]indole-11-carboxylate]
- IC50 [1]: 388 nM
- IC50 (G810R mutant RET kinase): 183 nM
- IC50 (G810S mutant RET kinase): 312 nM
- IC50 [2]: 166 nM
- IC50 [3]: 607 nM
- IC50 (RET kinase Wild Type): 92 nM

Structure (SMILES): COC(=O)c1ccc(-n2c3c(c4c(N)ncnc42)-c2noc(C4CC4)c2C(O)CC3)cc1 (stereo not drawn) [Example 113, Methyl 4-(11-amino-3-cyclopropyl-4-hydroxy-5,6-dihydroisoxazolo[4″,3″:6′,7′]cyclohepta[1′,2′:4,5]pyrrolo[2,3-d]pyrimidin-7(4H)-yl)benzoate 2,2,2-trifluoroacetate]
- IC50 [1]: 274 nM
- IC50 (G810R mutant RET kinase): 106 nM
- IC50 (G810S mutant RET kinase): 63 nM
- IC50 [2]: 513 nM
- IC50 (RET kinase Wild Type): 102 nM
- IC50 (RET kinase V804M): 169 nM

Structure (SMILES): Nc1ncnc2c1c1c(n2[C@@H]2C[C@@H](O)[C@@H](O)C2)CCC(O)c2c-1noc2C1CC1 (stereo partly drawn) [Example 130, (1r,2s,4s)-4-(11-amino-3-cyclopropyl-4-hydroxy-5,6-dihydroisoxazolo[4″,3″:6′,7′]cyclohepta[1′,2′:4,5]pyrrolo[2,3-d]pyrimidin-7(4H)-yl)cyclopentane-1,2-diol]
- IC50 [1]: 131 nM
- IC50 (G810R mutant RET kinase): 40 nM
- IC50 (G810S mutant RET kinase): 32 nM
- IC50 [2]: 34 nM
- IC50 (RET kinase Wild Type): 12 nM
- IC50 (RET kinase V804M): 64 nM

Structure (SMILES): CNC(=O)c1ccc2c(Cl)c3n(c2c1)C(=O)NCc1c-3c2c(N)ncnc2n1C(C)C [Example 74, 1-Amino-14-chloro-5-isopropyl-N-methyl-8-oxo-5,6,7,8-tetrahydropyrimido[5″,4″:4′,5′]pyrrolo[2′,3′:5,6][1,3]diazepino[1,7-a]indole-11-carboxamide]
- IC50 [1]: 918 nM
- IC50 (G810R mutant RET kinase): 2080 nM
- IC50 (G810S mutant RET kinase): 289 nM
- IC50 [3]: 2940 nM
- IC50 (RET kinase Wild Type): 353 nM
- IC50 (RET kinase V804M): 6000 nM

Structure (SMILES): Nc1ncnc2c1c1c(n2C(CF)CF)CCC(O)c2c-1noc2C1CC1 (stereo not drawn) [Example 122, 11-amino-3-cyclopropyl-7-(1,3-difluoropropan-2-yl)-4,5,6,7-tetrahydro-isoxazolo[4″,3″:6′,7′]cyclohepta[1′,2′:4,5] pyrrolo[2,3-d]pyrimidin-4-ol]
- IC50 [1]: 77 nM
- IC50 (G810R mutant RET kinase): 28 nM
- IC50 (G810S mutant RET kinase): 26 nM
- IC50 [2]: 31 nM
- IC50 (RET kinase Wild Type): 14 nM
- IC50 (RET kinase V804M): 38 nM

Structure (SMILES): CC(C)n1c2c(c3c(N)ncnc31)-c1cc3ccc(C(=O)Nc4ccn(-c5ccccc5)n4)cc3n1CCC2 [Example 100, 1-amino-5-isopropyl-N-(1-phenyl-1H-pyrazol-3-yl)-5,6,7,8-tetrahydropyrimido[5″,4″:4′,5′]pyrrolo[3′,2′: 3,4]azepino[1,2-a]indole-11-carboxamide]
- IC50 [1]: 15 nM
- IC50 (G810R mutant RET kinase): 1610 nM
- IC50 (G810S mutant RET kinase): 914 nM
- IC50 [2]: 10 nM
- IC50 (RET kinase Wild Type): 233 nM
- IC50 (RET kinase V804M): 2860 nM
